{"source": "paper PMC10341764", "about": "(International Journal of Molecular Sciences, 2023)", "key": {"adrenals": {"system": "adrenals", "conditions": "cited from earlier work"}, "ACAT": {"system": "ACAT", "set-up": "method as in PMID 8937424, PMID 12536672", "conditions": "cited from earlier work"}, "cortical regions": {"system": "cortical regions", "set-up": "method as in PMID 23427273", "conditions": "fed to mice for seven days; cited from earlier work"}, "ACAT1": {"molecular_target": "ACAT1", "conditions": "cited from earlier work"}, "ACAT2": {"molecular_target": "ACAT2", "conditions": "cited from earlier work"}, "[1]": {"set-up": "method as in PMID 12735237", "conditions": "cited from earlier work"}, "5xFAD mouse model": {"system": "5xFAD mouse model", "set-up": "method as in PMID 37157042", "conditions": "oral feeding for 60 days; cited from earlier work"}, "mouse model for EOAD": {"system": "mouse model for EOAD", "set-up": "method as in PMID 15473963", "conditions": "slow-releasing pellet implanted underneath the mouse skin; cited from earlier work"}, "[2]": {"test": "HPLC/MS/MS analysis of F12511 content in plasma and tissues", "assay_type": "in vivo", "conditions": "mouse, brain / plasma, intravenous, 46 mg F12511/kg; 12 to 24 h time point", "description": "We also monitored the ACAT enzyme activities in various tissues 4 to 48 h after a single IV injection of nanoparticle F at 46 mg/kg.\nBoth compounds were dissolved in DMSO at 10 mg/mL and stored at −40 °C. Subsequent working dilutions were made in fresh acetonitrile (ACN) daily. Calibrators and quality control measures were used in the appropriate matrix: C57BL/6 plasma (anticoagulant: K3-EDTA, Innovative Research), brain homogenate, liver homogenate, and adrenal gland homogenate. The tissues were homogenized at 0.1 g/mL in diH2O by using stainless steel beads and a Next Advance Bullet Blender. All the samples (50 µL) were protein precipitated, with 150 µL of 10 ng/mL CP113,818 in ACN acting as an internal standard and added via vortex for 1 min and centrifugation for 5 min at 15,000 rpm. In total, 150 µL of supernatant was transferred to amber autosampler vials, and 10 µL was injected on the LC-MS/MS system. […] The heated ESI source was operated with a spray voltage of 4500 V, vaporizer temperature at 500 °C, capillary temperature at 250 °C, and sheath and auxiliary gases at 30 and 15 arbitrary units, respectively."}, "ACAT enzyme": {"system": "ACAT enzyme", "test": "ACAT enzyme activity in tissue homogenates after IV injection (mixed micelles assay)", "conditions": "judged by ACAT inhibition in brain", "experimental": "Based on this finding, we treated the animals with the inhibitor by IV injection, perfused the mice after the animals were treated (to remove blood contamination from the tissues), then prepared the tissue homogenates, and monitored the ACAT enzyme activity in these tissues by using the mixed micelles enzyme assay described previously [24, 39, 49, 50] (the mixed micelles assay measures the ACAT enzyme activity independent of endogenous lipid composition because it reconstitutes the ACAT protein in mixed micelles with a defined lipid composition)."}, "[3]": {"set-up": "method as in PMID 31646241", "conditions": "cited from earlier work"}}, "data": [{"smiles": "CCCCCCCCC(SCCCCCC)C(=O)Nc1c(SC)cc(C)nc1SC", "note": "(single isomer, unassigned) [enantiomeric isomer of CP113,818]", "values": [{"measurement": "adrenal toxicity", "setting": "adrenals", "result": "causes severe adrenal toxicity"}, {"measurement": "activity as ACAT inhibitor", "setting": "ACAT", "result": "inactive as an ACAT inhibitor"}]}, {"smiles": "O=C(O)C[C@H]1CC[C@H](c2ccc(NC(=O)c3nnc(Nc4ccc(F)c(F)c4)o3)cc2)CC1", "note": "[AZD3988]", "values": [{"measurement": "fine vacuolation in cortical regions", "setting": "cortical regions", "result": "significant reduction in fine vacuolation in cortical regions"}]}, {"smiles": "CC(C)c1cc(C(C)C)c(CC(=O)NS(=O)(=O)Oc2c(C(C)C)cccc2C(C)C)c(C(C)C)c1", "note": "[CI1011, 2,6-bis(1-methylethyl)phenyl ((2,4,6-tris(1-methylethyl)phenyl)acetyl)sulfamate]", "values": [{"measurement": "Ki", "setting": "ACAT1", "result": 20000, "unit": "nM"}, {"measurement": "Ki", "setting": "ACAT2", "result": 20000, "unit": "nM"}, {"measurement": "clinical phase 1 safety tests", "setting": "[1]", "result": "passed clinical phase 1 safety tests"}, {"measurement": "amyloidopathy and other AD-like pathologies", "setting": "5xFAD mouse model", "result": "ameliorated amyloidopathy and other AD-like pathologies"}]}, {"smiles": "CCCCCCCC[C@H](SCCCCCC)C(=O)Nc1c(SC)cc(C)nc1SC", "note": "[CP113,818]", "values": [{"measurement": "Ki", "setting": "ACAT1", "result": 20, "unit": "nM"}, {"measurement": "Ki", "setting": "ACAT2", "result": 20, "unit": "nM"}, {"measurement": "adrenal accumulation and toxicity", "setting": "adrenals; preclinical trial, animals", "result": "accumulated in adrenals in animals and caused toxicity"}, {"measurement": "amyloidopathy", "setting": "mouse model for EOAD", "result": "effective in suppressing amyloidopathy"}]}, {"smiles": "CCCCCCCCCCCCS[C@H](C(=O)Nc1cc(C)c(O)c(C)c1C)c1ccccc1", "note": "[F12511, (S)-2′,3′,5′-trimethyl-4′-hydroxy-alpha-dodecylthio-alpha-phenylacetanilide]", "values": [{"measurement": "Kp", "setting": "[2]", "result": "0.005 to 0.01"}, {"measurement": "Ki", "setting": "ACAT2", "result": 110, "unit": "nM"}, {"measurement": "clinical phase 1 safety tests", "setting": "[1]", "result": "passed clinical phase 1 safety tests"}, {"measurement": "adrenal toxicity in animals", "setting": "adrenals", "result": "did not cause adrenal toxicity in animals"}, {"measurement": "permeability to the mouse brain as part of nanoparticles", "setting": "ACAT enzyme", "result": "permeable to the mouse brain"}]}, {"smiles": "CSc1cc(C)nc(SC)c1NC(=O)CN1CCN(CCSc2nc3ccccc3[nH]2)CC1.Cl.Cl", "note": "[K604, 2-[4-[2-(Benzimidazol-2-ylthio)ethyl]piperazin-1yl]-N-[2,4-bis(methylthio)-6-methyl-3-pyridyl]acetamide dihydrochloride]", "values": [{"measurement": "clinical phase 1 safety tests", "setting": "[1]", "result": "passed clinical phase 1 safety tests"}, {"measurement": "permeability to the mouse brain", "setting": "[3]", "result": "impermeable to the mouse brain"}]}]}
